As a reminder, the logP is a log measure of how a compound divides between an organic and an aqueous phase. As a reminder, the solubility is the concentration that dissolves in the medium under given conditions.

This passage reports logP and solubility results from ChEMBL document CHEMBL2331163, “Enhancement of the water solubility of flavone glycosides by disruption of molecular planarity of the aglycone moiety” (J Nat Prod, 2013).

Values after ≈ are worked out from the molar mass of the structure shown.

Data set [1] is described as follows: Lipophilicity, log P of the compound. Particulars: octanol/water. It is filed as physicochemical.
Data set [2] can be described thus: Aqueous solubility of the compound in water after 2 days by HPLC analysis. It is filed as physicochemical.

Compound `C[C@@H]1O[C@@H](O[C@H]2[C@H](Oc3cc(O)c4c(=O)cc(-c5ccc(O)cc5)oc4c3)O[C@H](CO)[C@@H](O)[C@@H]2O)[C@H](O)[C@H](O)[C@H]1O` [RHOIFOLIN] gave a logP in data set [1] of 0.71. The compound further returned a solubility at 48 h in data set [2] of 0.114 mg/mL (≈ 0.197 mM).

In the case of `C[C@@H]1O[C@@H](O[C@H]2[C@H](Oc3cc(O)c4c(=O)c(Br)c(-c5ccc(O)cc5)oc4c3)O[C@H](CO)[C@@H](O)[C@@H]2O)[C@H](O)[C@H](O)[C@H]1O`, the logP in data set [1] turned out to be 0.93. Also, the solubility at 48 h in data set [2] was more than 100 mg/mL.

In data set [1], `COc1ccc(-c2oc3cc(O[C@@H]4O[C@H](CO[C@@H]5O[C@@H](C)[C@H](O)[C@@H](O)[C@H]5O)[C@@H](O)[C@H](O)[C@H]4O)cc(O)c3c(=O)c2O)cc1O` registered a logP of 0.06. In data set [2], this compound returned a solubility at 48 h of 0.0056 mg/mL (≈ 0.00897 mM).

The compound `COc1ccc(-c2oc3cc(O[C@@H]4O[C@H](CO[C@@H]5O[C@@H](C)[C@H](O)[C@@H](O)[C@H]5O)[C@@H](O)[C@H](O)[C@H]4O)cc(O)c3c(=O)c2Br)cc1O` displayed a logP in data set [1] of 0.61. In data set [2], the concentration in solution (solubility at 48 h) came to 214 mg/mL (≈ 311 mM).

With `COc1ccc(-c2oc3cc(O[C@@H]4O[C@H](CO[C@@H]5O[C@@H](C)[C@H](O)[C@@H](O)[C@H]5O)[C@@H](O)[C@H](O)[C@H]4O)cc(O)c3c(=O)c2Cl)cc1O`, the logP in data set [1] turned out to be 0.44. The compound also yielded a solubility at 48 h in data set [2] of 231 mg/mL (≈ 359 mM).

In data set [1], `COc1ccc(-c2oc3cc(O[C@@H]4O[C@H](CO[C@@H]5O[C@@H](C)[C@H](O)[C@@H](O)[C@H]5O)[C@@H](O)[C@H](O)[C@H]4O)cc(O)c3c(=O)c2Br)cc1` showed a log partition coefficient (logP) of 1.17. In data set [2], this compound displayed a solubility at 48 h of 13.8 mg/mL (≈ 20.6 mM).

In turn, `COc1ccc(-c2cc(=O)c3c(O)cc(O[C@@H]4O[C@H](CO[C@@H]5O[C@@H](C)[C@H](O)[C@@H](O)[C@H]5O)[C@@H](O)[C@H](O)[C@H]4O)cc3o2)cc1` [ACACIIN] yielded a logP in data set [1] of 0.84. In data set [2], the concentration in solution (solubility at 48 h) was 0.0046 mg/mL (≈ 0.00776 mM).
